Data published in patent publication US9289462B2, “Method for medical treatment utilizing glutathione” (priority 2008, dated 2016).
Read-outs that look alike come from different tables or passages of the source.

What was measured:
[1] = test system: patients with acute pancreatitis; settings: previous studies, cited from earlier work; for benefit in patients with acute pancreatitis: administration of n-acetylcysteine together with the antioxidants selenium and vitamin C
[2] = test system: amylase and lipase levels; settings: Example 1; for Lipase: Normal 8-57; for Amylase: Normal 30-110
Text: (§1) A patient who has experienced over 5 years of constant abdominal pain secondary to chronic pancreatitis is given intravenous reduced L-glutathione therapy.

[3] = test system: patient with constant abdominal pain secondary to chronic pancreatitis; settings: for Pain Score: GSH (1 gm) IV
Text: as §1

[4] = test system: patient with acute pancreatitis, abdominal pain; assay: Example 2: pain score of a patient with acute pancreatitis after a single dose of intravenous reduced L-glutathione; assay type: in vivo, human
Text: (§3) The patient improved substantially over a several week period on nonspecific supportive therapy but continued to require pain medication intermittently.

[5] = test system: amylase, lipase and C-reactive protein levels; settings: Example 3; for CRP: Normal 0-7.48; for Lipase: Normal 8-57; for Amylase: Normal 30-110
Text: (§2) A person had experienced 5 weeks of increasing back and abdominal pain prior to first dose of intravenous L-glutathione. […] The patient elected to undergo intravenous L-glutathione reduced therapy for pancreatitis.

[6] = test system: patient with back and abdominal pain, pancreatitis; settings: for Pain Score: GSH (1 gm)
Text: as §2

[7] = test system: amylase and lipase levels; settings: Example 2; for Lipase: Normal 8-57; for Amylase: Normal 30-110
Text: as §3

[8] = known value; cited from earlier work
[9] = Sep. 14, 2007 (before first GSH infusion of Sep. 28, 2007)
[10] = Sep. 28, 2007 (date of first GSH infusion)
[11] = Jun. 3, 2008 (date of first GSH dose)
[12] = May 22, 2008 (before first GSH dose of Jun. 3, 2008)
[13] = May 30, 2008 (before first GSH dose)
[14] = May 7, 2008 (date of GSH infusion)

## [Se] [selenium]
[1]
  benefit in patients with acute pancreatitis: failed to show any benefit

## NC(CCC(=O)NC(CS)C(=O)NCC(=O)O)C(=O)O (stereo not shown) [GSH, 2-amino-4-[[1-(carboxymethylcarbamoyl)-2-sulfanyl-ethyl]carbamoyl]butanoic acid]
[2]; Jun. 27, 2008
  Lipase: 30
  Amylase: 68
[2]; Nov. 5, 2007
  Lipase: 39
  Amylase: 62
[2]; [9]
  Lipase: 108
  Amylase: 90
[2]; [10]
  Lipase: 64
  Amylase: 79
[2]; during the course of treatment
  amylase and lipase levels: significantly reduced
[3]; Example 1, person, Sep. 28, 2007, pain medication hydrocodone
  Pain Score: 8 of 10
[3]; Example 1, Dec. 10, 2007, pain medication propoxyphene
  Pain Score: 1 of 10
[3]; Example 1, Dec. 17, 2007, pain medication None
  Pain Score: 0 of 10
[3]; Example 1, Jan. 3, 2008, pain medication None
  Pain Score: 0 of 10
[3]; Example 1, Nov. 12, 2007, pain medication propoxyphene
  Pain Score: 1 of 10
[3]; Example 1, Oct. 10, 2007, pain medication propoxyphene
  Pain Score: 5 of 10
[3]; Example 1, Oct. 29, 2007, pain medication propoxyphene
  Pain Score: 2 of 10
[3]; Example 1, within four months of initiating reduced L-glutathione therapy
  Pain reported by the patient: absence of pain
[4]; Example 2, person, GSH (1 gm) IV, May 7, 2008, pain medication hydrocodone
  Pain Score: 5 of 10
[4]; Example 2, May 9, 2008, follow up visit only, no infusion given, pain medication None
  Pain Score: 0 of 10
[4]; Example 2, single dose of intravenous reduced L-glutathione
  pain and enzyme levels: responded to a single dose
[5]; [11]
  CRP: 7.84
  Lipase: 112
  Amylase: 95
[5]; Jun. 5, 2008
  CRP: 9.11
  Lipase: 152
  Amylase: 128
[5]; Jun. 16, 2008
  Lipase: 89
  Amylase: 75
[5]; Jun. 25, 2008
  CRP: 3.97
  Lipase: 60
  Amylase: 64
[5]; [12]
  Lipase: 150
  Amylase: 105
[5]; [13]
  Lipase: 150
  Amylase: 124
[5]; within a month of intravenous L-glutathione reduced therapy
  amylase, lipase and C-reactive protein levels: reduction
[6]; Example 3, person, Jun. 3, 2008, pain medication hydrocodone
  Pain Score: 5 of 10
[6]; Example 3, Jun. 4, 2008, pain medication hydrocodone
  Pain Score: 0 of 10
[6]; Example 3, Jun. 5, 2008, pain medication hydrocodone
  Pain Score: 2.5 of 10
[6]; Example 3, Jun. 6, 2008, pain medication hydrocodone
  Pain Score: 4.5 of 10
[6]; Example 3, Jun. 9, 2008, pain medication hydrocodone
  Pain Score: 3 of 10
[6]; Example 3, Jun. 16, 2008, pain medication None
  Pain Score: 0 of 10
[6]; Example 3, Jun. 18, 2008, pain medication None
  Pain Score: 0 of 10
[6]; Example 3, Jun. 25, 2008, Back pain due to lifting furniture
  Pain Score: 2 of 10
[6]; Example 3, within a month of intravenous L-glutathione reduced therapy
  pain: significant decrease in pain
[7]; [14]
  Lipase: 161
  Amylase: 115
[7]; May 9, 2008
  Lipase: 132
  Amylase: 105
[1]; administration of glutathione
  effect on multiple organ functions in patients with acute pancreatitis: protective effect

## COc1ccc2c3c1O[C@H]1C(=O)CC[C@H]4[C@@H](C2)N(C)CC[C@]314 [hydrocodone, reference compound]
[4]; Example 2, May 7, 2008, pain described as 10/10, relieved with hydrocodone taken at home, before GSH
  pain: 5 /10

## O=C1O[C@H]([C@@H](O)CO)C(O)=C1O [vitamin C, reference compound]
[1]
  benefit in patients with acute pancreatitis: failed to show any benefit

## CC(=O)N[C@@H](CS)C(=O)O [n-acetylcysteine, reference compound]
[1]
  benefit in patients with acute pancreatitis: failed to show any benefit

## CC(C)OC(=O)CNC(=O)[C@H](CS)NC(=O)CC[C@H](N)C(=O)O [glutathione isopropyl ester]
[8]
  toxicity LD 50 value: about 5.3 g/kg
